Measured values as given in ChEMBL document CHEMBL5634129, “Design, synthesis, and structure-activity relationships of a novel class of quinazoline derivatives as coronavirus inhibitors” (Eur J Med Chem, 2023).

Columns and labels:
[1] = Cytotoxicity in human NCI-H460 cells infected with HCoV-OC43 treated for 72 hrs by CPE inhibition assay; assay type: toxicity, cell-based; conditions: read-out: TC50
Human coronavirus OC43 = test: Antiviral activity against HCoV-OC43 infected in human NCI-H460 cells treated for 72 hrs by CPE inhibition assay; assay type: functional, organism-based; conditions: Betacoronavirus 1, NCI-H460, 72 h
[2] = Selectivity index, ratio of TC50 for human NCI-H460 cells infected with HCoV-OC43 to EC50 for HCoV-OC43 infected in human NCI-H460 cells; assay type: toxicity, cell-based; conditions: read-out: Selectivity Index

SMILES | CC50 at 72 h [1] | EC50 (Human coronavirus OC43) | selectivity ratio [2]
COC(=O)c1cc(Nc2ncnc3ccc(OC)cc23)cc(C(F)(F)F)c1 | 26.7 µM | 0.48 µM | 55.6
CC(C)Oc1ccc2ncnc(Nc3cc(C(F)(F)F)cc(C(F)(F)F)c3)c2c1 | 388 µM | 43.1 µM | 9
CCCOc1ccc2ncnc(Nc3cc(C(F)(F)F)cc(C(F)(F)F)c3)c2c1 | 388 µM | 0.37 µM | 1050
COc1ccc2ncnc(Nc3cc(C(F)(F)F)cc(C(F)(F)F)c3)c2c1 | 96.2 µM | 1.14 µM | 
COc1ccc2ncnc(Nc3cc(F)cc(C#N)c3)c2c1 | 388 µM | 23.9 µM | 16.3
O=[N+]([O-])c1ccc(Nc2ncnc3ccc(Cl)cc23)cc1Cl | 22.2 µM | > 2.47 µM | 
Fc1ccc(Nc2ncnc3ccc(Cl)cc23)cc1 | 15.4 µM | > 7.41 µM | 
Nc1ccc2ncnc(Nc3cc(C(F)(F)F)cc(C(F)(F)F)c3)c2c1 | 10.7 µM | 0.48 µM | 22.3
COc1cc(/C=C/c2ccc(F)cc2)c(C(=O)O)c(O)c1CC=C(C)C | 38.5 µM | 12.8 µM | 
CCOc1ccc2nc(NC3CCCC3)nc(Nc3cc(C(F)(F)F)cc(C(F)(F)F)c3)c2c1 | 12.8 µM | > 6.17 µM | 
COc1ccc2ncnc(Sc3cc(C(F)(F)F)cc(C(F)(F)F)c3)c2c1 | 96.2 µM | > 55.6 µM | 96.2
CCOC(=O)c1ccc(Nc2ncnc3ccc(Cl)cc23)c(Cl)c1 | 32 µM | > 7.41 µM | 
N#Cc1ccc(Nc2ncnc3ccc(Cl)cc23)c(Cl)c1 | 46.2 µM | > 22.2 µM | 
CCOc1ccc2nc(NCC(=O)OC(C)(C)C)nc(Nc3cc(C(F)(F)F)cc(C(F)(F)F)c3)c2c1 | 18.5 µM | 3.56 µM | 5.2
COC(=O)c1cc(Cl)cc(Nc2ncnc3ccc(OC)cc23)c1 | 129 µM | 1.43 µM | 90.4
CCOc1ccc2nc(NC(C)C)nc(Nc3cc(C(F)(F)F)cc(C(F)(F)F)c3)c2c1 | 8.9 µM | 1.43 µM | 6.2
CCOc1ccc2nc(NCC(F)(F)F)nc(Nc3cc(C(F)(F)F)cc(C(F)(F)F)c3)c2c1 | 32.1 µM | 2.06 µM | 15.6
Cc1ccc2ncnc(Nc3cc(C(F)(F)F)cc(C(F)(F)F)c3)c2c1 | 96.2 µM | 1.19 µM | 80.9
CN(C)c1ccc(Nc2ncnc3ccc(Cl)cc23)c(Cl)c1 | 4.28 µM | > 2.47 µM | 
CCOc1ccc2nc(NCCN3CCN(C)CC3)nc(Nc3cc(C(F)(F)F)cc(C(F)(F)F)c3)c2c1 | 5.77 µM | 0.53 µM | 10.9

SMILES | CC50 at 72 h [1] | EC50 (Human coronavirus OC43) | selectivity ratio [2]
CCOc1ccc2nc(NC(C)CCCN(CC)CC)nc(Nc3cc(C(F)(F)F)cc(C(F)(F)F)c3)c2c1 (configuration not stated) | 3.56 µM | > 2.06 µM | 
Fc1ccc2ncnc(Nc3cc(C(F)(F)F)cc(C(F)(F)F)c3)c2c1 | 12.8 µM | 0.88 µM | 14.6
COc1ccc2ncnc(Oc3cc(C(F)(F)F)cc(C(F)(F)F)c3)c2c1 | 240 µM | > 55.6 µM | 240
CCOc1ccc2nc(NC(Cc3ccccc3)C(=O)OC(C)(C)C)nc(Nc3cc(C(F)(F)F)cc(C(F)(F)F)c3)c2c1 (configuration not stated) | 38.5 µM | 18.5 µM | 2.1
FC(F)(F)c1cc(Nc2ncnc3cccnc23)cc(C(F)(F)F)c1 | 240 µM | 32.1 µM | 7.5
COc1ccc2ncnc(Nc3cc(C(F)(F)F)ccc3F)c2c1 | 15.4 µM | > 6.17 µM | 
Cc1ccc(Nc2ncnc3ccc(Cl)cc23)c(Cl)c1 | 28.6 µM | > 7.41 µM | 
FC(F)(F)c1cc(Nc2ncnc3ccc(Cl)cc23)cc(C(F)(F)F)c1 | 1.71 µM | 0.16 µM | 10.8
Clc1ccc2ncnc(Nc3ccccc3Cl)c2c1 | 96.2 µM | > 22.2 µM | 
COc1ccc2ncnc(Nc3cccc(C(F)(F)F)c3)c2c1 | 10.7 µM | 4.28 µM | 2.5
COc1ccc2ncnc(Nc3cc(F)cc(F)c3)c2c1 | 388 µM | 23.9 µM | 16.3
CN(C)c1ccc(Nc2ncnc3ccc(Cl)cc23)cc1Cl | 4.28 µM | > 2.47 µM | 
COc1cc(/C=C/c2ccccc2)c(C(=O)O)c(O)c1CC=C(C)C | 38.5 µM | 22.2 µM | 
CCOC(=O)c1ccc(Nc2ncnc3ccc(Cl)cc23)cc1 | 38.5 µM | > 7.41 µM | 
COc1ccc2ncnc(Nc3cc(Cl)cc(C#N)c3)c2c1 | 240 µM | 9.98 µM | 24.1
Clc1ccc(Nc2ncnc3ccc(Cl)cc23)cc1 | 12.8 µM | > 7.41 µM | 
Clc1ccc2ncnc(Nc3ccc(Br)cc3)c2c1 | 5.14 µM | > 2.47 µM | 
CCCNc1nc(Nc2cc(C(F)(F)F)cc(C(F)(F)F)c2)c2cc(OCC)ccc2n1 | 6.17 µM | 0.69 µM | 9
FC(F)(F)c1cc(Nc2ncnc3cnc(Cl)cc23)cc(C(F)(F)F)c1 | 1.71 µM | 0.15 µM | 11.4
CCOc1ccc2nc(N3CCN(C)CC3)nc(Nc3cc(C(F)(F)F)cc(C(F)(F)F)c3)c2c1 | 10.7 µM | 0.48 µM | 22.3

SMILES | CC50 at 72 h [1] | EC50 (Human coronavirus OC43) | selectivity ratio [2]
O=[N+]([O-])c1ccc(Nc2ncnc3ccc(Cl)cc23)cc1 | 46.2 µM | > 7.41 µM | 
CCOc1ccc2nc(N3CCC(F)(F)CC3)nc(Nc3cc(C(F)(F)F)cc(C(F)(F)F)c3)c2c1 | 12.8 µM | 6.17 µM | 2.1
O=[N+]([O-])c1cccc(Nc2ncnc3ccc(Cl)cc23)c1 | 51.7 µM | 4.28 µM | 12.1
COC(=O)c1cc(Nc2ncnc3ccc(OC)cc23)cc(C(=O)OC)c1 | 240 µM | 55.6 µM | 4.3
O=[N+]([O-])c1ccc(CNc2ncnc3ccc(Cl)cc23)cc1 | 167 µM | 55.6 µM | 
COc1ccc2ncnc(NNC(=O)c3cc(C(F)(F)F)cc(C(F)(F)F)c3)c2c1 | 289 µM | 1.71 µM | 289
COC(=O)c1cc(F)cc(Nc2ncnc3ccc(OC)cc23)c1 | 388 µM | > 55.6 µM | 
CCN(CC)CCCC(C)Nc1ncnc2ccc(Cl)cc12 (configuration not stated) | > 200 µM | > 200 µM | 
O=C(O)c1ccc(Nc2ncnc3ccc(Cl)cc23)c(Cl)c1 | 96.2 µM | > 22.2 µM | 
COc1ccc2ncnc(N3CCN(c4cc(C(F)(F)F)cc(C(F)(F)F)c4)C(=O)C3)c2c1 | 240 µM | 6.17 µM | 
COc1ccc2ncnc(Nc3cccc(C#N)c3)c2c1 | 388 µM | > 55.6 µM | 
CCOC(=O)c1c(/C=C/c2ccccc2)cc(OC)c(CC=C(C)C)c1O | > 200 µM | 139 µM | 
CC/C=C/c1cc(OC)c(CC=C(C)C)c(O)c1C(=O)O | 46.2 µM | > 22.2 µM | 
Clc1ccc2ncnc(NCCN3CCOCC3)c2c1 | > 200 µM | 155 µM | 
Clc1ccc(Nc2ncnc3ccc(Cl)cc23)c(Cl)c1 | 15.4 µM | > 7.41 µM | 
O=[N+]([O-])c1cnc(Nc2ncnc3ccc(Cl)cc23)nc1 | 139 µM | > 66.7 µM | 
COc1ccc(Nc2ncnc3ccc(Cl)cc23)cc1 | 12.8 µM | > 7.41 µM | 
FC(F)(F)c1cc(CNc2ncnc3ccc(Cl)cc23)cc(C(F)(F)F)c1 | 388 µM | 9.98 µM | 
N#Cc1ccc(Nc2ncnc3ccc(Cl)cc23)cc1 | 28.6 µM | > 7.41 µM | 
CN1CCN(CCNc2ncnc3ccc(Cl)cc23)CC1 | > 200 µM | > 66.7 µM | 
